Results as given in paper PMC3319082 (Bioorganic & medicinal chemistry letters, 2011).

Molecular target: rat mGlu4 (Rattus norvegicus, UniProt P31423)
Type: cell-based
Conditions: rat mGlu4/GIRK cells, Fig. 2

rat mGlu4, sequence (P31423 33-912): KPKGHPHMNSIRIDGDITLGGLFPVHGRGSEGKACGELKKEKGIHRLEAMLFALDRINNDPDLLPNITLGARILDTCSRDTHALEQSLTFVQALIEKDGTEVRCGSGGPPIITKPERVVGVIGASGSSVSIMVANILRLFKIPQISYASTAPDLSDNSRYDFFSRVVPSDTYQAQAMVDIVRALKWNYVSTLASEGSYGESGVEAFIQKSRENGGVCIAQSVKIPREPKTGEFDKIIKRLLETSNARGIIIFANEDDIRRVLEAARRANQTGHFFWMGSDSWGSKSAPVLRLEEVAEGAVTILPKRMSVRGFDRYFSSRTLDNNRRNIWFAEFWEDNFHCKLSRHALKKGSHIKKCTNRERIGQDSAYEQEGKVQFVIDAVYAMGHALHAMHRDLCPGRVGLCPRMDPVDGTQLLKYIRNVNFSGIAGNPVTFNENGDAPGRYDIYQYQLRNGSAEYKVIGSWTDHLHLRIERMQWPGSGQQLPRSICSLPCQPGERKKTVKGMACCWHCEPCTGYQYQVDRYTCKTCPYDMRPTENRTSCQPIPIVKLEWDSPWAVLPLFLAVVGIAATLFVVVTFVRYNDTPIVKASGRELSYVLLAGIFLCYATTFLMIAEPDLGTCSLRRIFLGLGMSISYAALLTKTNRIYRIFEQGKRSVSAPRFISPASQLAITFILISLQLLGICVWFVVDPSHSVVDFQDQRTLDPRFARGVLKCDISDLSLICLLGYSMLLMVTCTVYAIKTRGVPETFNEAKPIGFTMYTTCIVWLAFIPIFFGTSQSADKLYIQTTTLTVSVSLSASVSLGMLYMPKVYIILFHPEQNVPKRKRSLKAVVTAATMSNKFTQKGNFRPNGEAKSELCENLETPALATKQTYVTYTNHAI

Antagonist activity in rat mGlu4 thallium flux assay: confirmed to be active
SMILES: O=C(COc1ccccc1Br)c1ccc(Cl)nc1 [2e]
